In ChEMBL document CHEMBL1142355, “Antimalarial dual drugs based on potent inhibitors of glutathione reductase from Plasmodium falciparum” (J Med Chem, 2008):

How the values were obtained:
[1] = test system: Plasmodium falciparum; assay: microbe, parasite or virus in culture; conditions: 3 h
Description: Antiparasitic activity against chloroquine-sensitive Plasmodium falciparum by [3H]hypoxanthine incorporation

[2] = test system: Plasmodium falciparum; assay: Antiparasitic activity against chloroquine-sensitive Plasmodium falciparum 3D7; type: functional, organism-based
[3] = test system: KB; assay: Cytotoxicity against human KB cells by alamar blue assay; type: functional, cell-based; conditions: for CC50: read-out: TD50 (the source's name)
[4] = test system: Plasmodium falciparum; assay: Antiparasitic activity against chloroquine-resistant Plasmodium falciparum K1; type: functional, organism-based
[5] = test system: Plasmodium falciparum; assay: Relative IC50 against Plasmodium falciparum K1 and 3D7; type: functional
[6] = test system: Plasmodium berghei; assay: Antimalarial 95% clearance activity against Plasmodium berghei ANKA infected BALB/c mice (Mus musculus) at 30 mg/kg intraperitoneal dose after 4 days; type: functional
[7] = test system: Plasmodium berghei; assay: Antimalarial activity against Plasmodium berghei ANKA infected BALB/c mice (Mus musculus) at 30 mg/kg intraperitoneal dose after 4 days; type: functional; conditions: ip, 96 h
[8] = test system: Plasmodium berghei; assay: Reduced parasitemia in Plasmodium berghei ANKA infected BALB/c mice (Mus musculus) at 30 mg/kg intraperitoneal dose after 4 days; type: functional; set-up: scale not given: the % may be the effect or the level left
[9] = test system: Plasmodium berghei; assay: Reduced parasitemia in Plasmodium berghei ANKA infected BALB/c mice (Mus musculus) at 21 mg/kg intraperitoneal dose after 4 days; type: functional; set-up: scale not given: the % may be the effect or the level left
[10] = test system: Plasmodium berghei; assay: Antimalarial activity against Plasmodium berghei ANKA infected BALB/c mice (Mus musculus) at 21 mg/kg intraperitoneal dose after 4 days; type: functional; conditions: ip, 96 h
[11] = test system: Plasmodium berghei; assay: Antimalarial 95% clearance activity against Plasmodium berghei ANKA infected BALB/c mice (Mus musculus) at 21 mg/kg intraperitoneal dose after 4 days; type: functional
[12] = test system: Plasmodium berghei; assay: Reduced parasitemia in Plasmodium berghei ANKA infected BALB/c mice (Mus musculus) at 10 mg/kg peroral dose after 4 days; type: functional; set-up: scale not given: the % may be the effect or the level left; conditions: route oral
[13] = test system: Plasmodium berghei; assay: Antimalarial activity against Plasmodium berghei ANKA infected BALB/c mice (Mus musculus) at 10 mg/kg peroral dose after 4 days; type: functional; conditions: 96 h, route oral

SMILES	IC50 [2] [nM]	CC50 [3] [µM]	IC50 [4] [nM]	Ratio IC50 [5]	further results
C[C@@H]1CC[C@H]2[C@@H](C)C(=O)O[C@@H]3O[C@@]4(C)CC[C@@H]1[C@]32OO4 [ARTEMISININ]	–	–	–	–	IC50 [1]: 4.5 nM
COc1cc(CNCCNc2ccnc3cc(Cl)ccc23)c(OC)c2ccccc12	23.7	3.8	28.4	–	–
COc1cc([C@@H]2c3cc4c(cc3[C@H](O)[C@H]3COC(=O)[C@H]23)OCO4)cc(OC)c1OC [PODOFILOX]	–	49.6	–	–	–
COc1cc(CN(CCNc2ccnc3cc(Cl)ccc23)CC(C)(C)C)c(OC)c2ccccc12	237	8.8	154	–	–
CC1=C(Cc2ccc(CC(=O)N(CCNc3ccnc4cc(Cl)ccc34)C(C)C)cc2)C(=O)c2ccccc2C1=O	12.4	318	5.3	0.4	–
CCN(CC)Cc1cc(Nc2ccnc3cc(Cl)ccc23)ccc1O.Cl	–	–	6.4	0.6	IC50 [1]: 9.5 nM
CO[C@H]1O[C@@H]2O[C@@]3(C)CC[C@H]4[C@H](C)CC[C@@H]([C@H]1C)[C@@]24OO3	–	–	–	–	IC50 [1]: 2.8 nM
COc1c(CNCCNc2ccnc3cc(Cl)ccc23)c(C(F)(F)F)c(OC)c2ccccc12.Cl	–	–	–	–	Activity [6]: 2.82%; inhibition in vivo at 30 mg/kg [7]: 18.3%; Activity [8]: 12.48%
COc1c(CN(CCNc2ccnc3cc(Cl)ccc23)CC(C)C)c(C(F)(F)F)c(OC)c2ccccc12	162	11.9	198	–	–
COc1c(C)c(Cc2ccc(CC(=O)N(CCNc3ccnc4cc(Cl)ccc34)C(C)C)cc2)c(OC)c2ccccc12	319	1.7	268	0.8	–
O[C@@H](c1cc(C(F)(F)F)nc2c(C(F)(F)F)cccc12)[C@H]1CCCCN1 [MEFLOQUINE]	–	–	–	–	IC50 [1]: 4.85 nM
CC(=O)Nc1ccc(O)c(CN(CCCNc2ccnc3cc(Cl)ccc23)C(C)C)c1	22.7	180	318	–	–
CC(=O)Nc1ccc(O)cc1 [ACETAMINOPHEN]	> 198000	–	86700	<0.4	–
CC1=C(CCCCCC(=O)N(CCNc2ccnc3cc(Cl)ccc23)C(C)C)C(=O)c2ccccc2C1=O	7.5	37	9.4	1.1	Activity [9]: 12.5%; inhibition in vivo at 21 mg/kg [10]: 18.2%; Activity [11]: 2.65%
COc1c(CN(CCNc2ccnc3cc(Cl)ccc23)CC(C)(C)C)c(C(F)(F)F)c(OC)c2ccccc12	146	12	116	–	–
COc1c(CNCCNc2ccnc3cc(Cl)ccc23)c(C(F)(F)F)c(OC)c2ccccc12	128	28.5	16	–	–
CN(C)c1ccc2nc3ccc(N(C)C)cc3[s+]c2c1 [METHYLENE BLUE ANHYDROUS]	–	–	–	–	IC50 [1]: 5.4 nM
COc1cc(CN(CCNc2ccnc3cc(Cl)ccc23)CC(C)C)c(OC)c2ccccc12	146	43.8	188	–	–
COc1c(C)c(CN(CCNc2ccnc3cc(Cl)ccc23)C(C)C)c(OC)c2ccccc12	83.7	85.8	105	–	–
CC(C)(C)NC(=O)CNc1ccnc2cc(Cl)ccc12	994	194	1440	1.4	–
COc1c(C)c(CN(CCNc2ccnc3cc(Cl)ccc23)CC(C)(C)C)c(OC)c2ccccc12	156	10.6	134	–	–

SMILES	IC50 [2] [nM]	CC50 [3] [µM]	IC50 [4] [nM]	Ratio IC50 [5]	further results
COc1c(CN(CCNc2ccnc3cc(Cl)ccc23)C(C)C)c(C(F)(F)F)c(OC)c2ccccc12	184	35.4	299	–	–
CC(C)(C)NCCNc1ccnc2cc(Cl)ccc12	21.2	143	128	6	–
CC(C)(C)CNCCNc1ccnc2cc(Cl)ccc12	20.6	62.1	6.8	0.3	–
CC(C)CNCCNc1ccnc2cc(Cl)ccc12	22.8	22.5	72	3.1	–
COc1c(C)c(Cc2ccc(CC(=O)NCCNc3ccnc4cc(Cl)ccc34)cc2)c(OC)c2ccccc12	289	11.5	505	1.7	–
Clc1ccc2c(NCCNCC3CC3)ccnc2c1	2.7	71.9	145	53.7	–
Clc1ccc2c(N3CCN(CCCN4CCN(c5ccnc6cc(Cl)ccc56)CC4)CC3)ccnc2c1 [PIPERAQUINE]	–	–	–	–	IC50 [1]: 14.6 nM
NCCNc1ccnc2cc(Cl)ccc12	4.5	49.6	1800	400	–
Clc1ccc2c(N3CC3)ccnc2c1	16000	102	39200	2.4	–
COc1cc(CN(CCNc2ccnc3cc(Cl)ccc23)C(C)C)c(OC)c2ccccc12	517	–	345	–	IC50 [3]: 67 µM
CC(C)NCCCNc1ccnc2cc(Cl)ccc12	3.6	47.9	144	40	–
COc1c(C)c(CNCCNc2ccnc3cc(Cl)ccc23)c(OC)c2ccccc12	229	5.1	22.9	–	–
CC1=C(CCCCCC(=O)NCCNc2ccnc3cc(Cl)ccc23)C(=O)c2ccccc2C1=O	184	22.2	367	2	–
CC(C)NCCNc1ccnc2cc(Cl)ccc12	10.2	89.8	96.7	9.5	–
CCN(CC)Cc1cc(Nc2ccnc3cc(Cl)ccc23)ccc1OCc1c(C(F)(F)F)c(OC)c2ccccc2c1OC	32	15	32	1	–
COc1c(C)c(CN(CCNc2ccnc3cc(Cl)ccc23)CC(C)C)c(OC)c2ccccc12	183	30.6	40.6	–	–
COc1c(C)c(CCCCCC(=O)N(CCNc2ccnc3cc(Cl)ccc23)C(C)C)c(OC)c2ccccc12	52.8	6.9	302	5.7	–
CC(C)(C)CNCCNc1ccnc2cc(Cl)ccc12.Cl	–	–	–	–	Activity [6]: 0.31%; inhibition in vivo at 30 mg/kg [7]: 94.4%; Activity [8]: 0.86%
CCN(CC)CCCC(C)Nc1ccnc2cc(Cl)ccc12 (stereo unspecified) [CHLOROQUINE]	–	127	–	–	Activity [12]: 0.13%; inhibition in vivo at 10 mg/kg [13]: 99.2%
COc1c(COc2ccc(NC(C)=O)cc2)c(C(F)(F)F)c(OC)c2ccccc12	6440	> 715	15700	2.4	–
